Experimental findings from US12084416B2, “Substituted sulfonylurea derivatives” (Zydus Lifesciences Limited, priority 2019, dated 2024) are described below.

Assay [1] relates to IL-1β. Briefly: In-vivo LPS and ATP induced IL-1β assay. To be noted: Mus musculus, 2.5 h; Dose 10 mpk, po; female C57 mice; serum IL-1β by ELISA; read-out: % IL-1β inhibition in LPS + ATP challenged C57 mice. The procedure:
All the animal experiments were carried out in female rats and mice, bred in-house. Animals were housed in groups of 6 animals per cage, for a week, in order to habituate them to vivarium conditions (25 f 4° C., 60-65% relative humidity, 12:12 h light:dark cycle, with lights on at 7.30 am). All the animal experiments were carried out according to the internationally valid guidelines following approval by the ‘Zydus Research Center animal ethical committee’.
Female C57 mice (6-8 weeks) received intraperitoneal injection of 50 μg/mouse of lipopolysaccharide (LPS) in PBS. Animals were treated immediately with the test compounds or the vehicle. After 2 h of LPS injection, animals were administered with ATP at 12.5 mg/mouse dissolved in PBS via intraperitoneal route. After 30 minutes of ATP injection, serum was collected for IL-1β estimation by ELISA.
Background: In an ELISA, binding on a coated surface is turned into a signal by an enzyme label.

The subject of assay [2] is IL-1β. Briefly: In-vitro IL-1β inhibition assay in PMA-differentiated, LPS-primed, ATP-stimulated THP1 cells. Format: cell-based. To be noted: Homo sapiens. Here is the method:
THP1 monocytes were differentiated with PMA (100 ng/mL) and incubated at 37 deg C. for 20 hrs in presence of 5% CO2. 2×10^5 differentiated cells were plated per well of 96 well tissue culture plates. The cells were primed using 500 ng/mL Lipopolysaccharide and incubating for 4 h under the same condition. The cells were then treated with various concentrations of the compounds for 30 min followed by treatment with 5 mM ATP for 1 hr. The supernatants were collected and analyzed by IL-1b (Mabtech Cat #3415-1H-20) or TNF-α (Mabtech; Cat #3510-1H-20) detection kit. The data were analyzed using GraphPad Prism V7.0. Dose Response Curve (DRC) was constructed to determine the IC50 value by fitting percentage […] data to the GraphPad Prism using nonlinear regression analysis.

[3] abbreviates: THP-1, THP1 monocytes differentiated with PMA, primed with 500 ng/mL LPS, compound 30 min, 5 mM ATP 1 hr, IL-1β in supernatant, read-out: IC50 (nM), invitro IL-1β inhibitory activity.
[4] abbreviates: THP-1, read-out: IC50 (nM), invitro IL-1β inhibitory activity.

Structures are written as SMILES. Read-outs that look alike come from different tables or passages of the source.

In general, IC50 refers to the concentration at which inhibition is half-maximal.

As to `O=C(Nc1c2c(cc3c1CCC3)CCC2)NS(=O)(=O)/C=C/[C@H]1CCCN1CC1CC1` [Example 5, (R,E)-2-(1-(cyclopropylmethyl)pyrrolidin-2-yl)-N-((1,2,3,5,6,7-hexahydro-s-indacen-4-yl)carbamoyl)ethene-1-sulfonamide], in the assay on IL-1β [1], the inhibition in vivo at 10 mg/kg is 70%.
For the molecule `CC(=O)N1CCC[C@@H]1/C=C/S(=O)(=O)NC(=O)Nc1c2c(cc3c1CCC3)CCC2` [Example 8, (R,E)-2-(1-acetylpyrrolidin-2-yl)-N-((1,2,3,5,6,7-hexahydro-s-indacen-4-yl)carbamoyl)-ethene-1-sulfonamide], the IC50 with IL-1β [2] (setting [3]) came to 10.7 nM.
The same measure, in the same setting: then `CC(C)(C)OC(=O)N1CCC[C@@H]1/C=C/S(=O)(=O)NC(=O)Nc1c2c(cc3c1CCC3)CCC2` [Example 10, tert-butyl (R,E)-2-(2-(N-((1,2,3,5,6,7-hexahydro-s-indacen-4-yl)carbamoyl)sulfamoyl)-vinyl)pyrrolidine-1-carboxylate], with 64 nM.
For `O=C(Nc1c2c(cc3c1CCC3)CCC2)NS(=O)(=O)/C=C/[C@H]1CCCN1S(=O)(=O)c1cccc(F)c1` [Example 13, (R,E)-2-(1-((3-fluorophenyl)sulfonyl)pyrrolidin-2-yl)-N-((1,2,3,5,6,7-hexahydro-s-indacen-4-yl)carbamoyl)ethenesulfonamide], in the assay with IL-1β [2] (setting [3]), the IC50 came to 9 nM.
On the same count and under the same terms, then `O=C(Nc1c2c(cc3c1CCC3)CCC2)NS(=O)(=O)/C=C/[C@H]1CCCN1C(=O)c1cnccn1` [Example 14, (R,E)-N-((1,2,3,5,6,7-hexahydro-s-indacen-4-yl)carbamoyl)-2-(1-(pyrazine-2-carbonyl)pyrrolidin-2-yl)ethenesulfonamide], with 17 nM; and `CCS(=O)(=O)N1CCC[C@@H]1/C=C/S(=O)(=O)NC(=O)Nc1c2c(cc3c1CCC3)CCC2` [Example 21, (R,E)-2-(1-(ethylsulfonyl)pyrrolidin-2-yl)-N-((1,2,3,5,6,7-hexahydro-s-indacen-4-yl)carbamoyl)ethene-1-sulfonamide], with 2.4 nM.
Turning to `CC(C)N1CCC[C@@H]1/C=C/S(=O)(=O)NC(=O)Nc1c2c(cc3c1CCC3)CCC2` [Example 22, (R,E)-N-((1,2,3,5,6,7-hexahydro-s-indacen-4-yl)carbamoyl)-2-(1-isopropylpyrrolidin-2-yl)ethene-1-sulfonamide], the inhibition in vivo at 10 mg/kg with IL-1β [1] is 83%.
In the case of `CS(=O)(=O)CCCN1CCC[C@@H]1/C=C/S(=O)(=O)NC(=O)Nc1c2c(cc3c1CCC3)CCC2` [Example 23, (R,E)-N-((1,2,3,5,6,7-hexahydro-s-indacen-4-yl)carbamoyl)-2-(1-(3-(methylsulfonyl)propyl)pyrrolidin-2-yl)ethenesulfonamide], in the assay with IL-1β [2] (setting [3]), the half-maximal inhibitory concentration (IC50) worked out at 14 nM.
For the molecule `O=C(Nc1c2c(cc3c1CCC3)CCC2)NS(=O)(=O)/C=C/[C@H]1CCCN1C1CCSCC1` [Example 40, (R,E)-N-((1,2,3,5,6,7-hexahydro-s-indacen-4-yl)carbamoyl)-2-(1-(tetrahydro-2H-thiopyran-4-yl)pyrrolidin-2-yl)ethene-1-sulfonamide], the inhibition in vivo at 10 mg/kg in the assay on IL-1β [1] stood at 86%.
Regarding `O=C(Nc1c2c(cc3c1CCC3)CCC2)NS(=O)(=O)/C=C/[C@@H]1CCCN1S(=O)(=O)c1cccnc1` [Example 63, (S,E)-N-((1,2,3,5,6,7-hexahydro-s-indacen-4-yl)carbamoyl)-2-(1-(pyridin-3-ylsulfonyl)-pyrrolidin-2-yl)ethenesulfonamide], in the assay on IL-1β [2] (setting [3]), the IC50 worked out at 8 nM.
In the case of `O=C(Nc1c2c(cc3c1CCC3)CCC2)NS(=O)(=O)/C=C/C1CCOCC1` [Example 71, (E)-N-((1,2,3,5,6,7-hexahydro-s-indacen-4-yl)carbamoyl)-2-(tetrahydro-2H-pyran-4-yl)ethenesulfonamide], the IC50 in the assay with IL-1β [2] (setting [3]) was found to be 87 nM.
In the case of `CS(=O)(=O)N1CCCC(/C=C/S(=O)(=O)NC(=O)Nc2c3c(cc4c2CCC4)CCC3)C1` (centres unmarked) [Example 84, (E)-N-((1,2,3,5,6,7-hexahydro-s-indacen-4-yl)carbamoyl)-2-(1-(methylsulfonyl)piperidin-3-yl)ethenesulfonamide], the IC50 in the assay with IL-1β [2] (setting [3]) came out at 8.5 nM.
Still for that read-out and setting: then `O=C(Nc1c2c(cc3c1CCC3)CCC2)NS(=O)(=O)/C=C/[C@@H]1CCCN1S(=O)(=O)c1ccc(Cl)s1` [Example 90, (S,E)-2-(1-((5-chlorothiophen-2-yl)sulfonyl)pyrrolidin-2-yl)-N-((1,2,3,5,6,7-hexahydro-s-indacen-4-yl)carbamoyl)ethenesulfonamide], with 16 nM.
On the same count and under the same terms, the result for `O=C(Nc1c2c(cc3c1CCC3)CCC2)NS(=O)(=O)/C=C/[C@@H]1CCCN1S(=O)(=O)Cc1ccccc1` [Example 91, (S,E)-2-(1-(benzylsulfonyl)pyrrolidin-2-yl)-N-((1,2,3,5,6,7-hexahydro-s-indacen-4-yl)carbamoyl)ethenesulfonamide] reads 2.9 nM.
Turning to `O=C(Nc1c2c(cc3c1CCC3)CCC2)NS(=O)(=O)/C=C/C1CCCCN1` (centres unmarked) [Example 100, (E)-N-((1,2,3,5,6,7-hexahydro-s-indacen-4-yl)carbamoyl)-2-(piperidin-2-yl)ethene-1-sulfonamide], the IC50 with IL-1β [2] (setting [3]) was determined as 70 nM.
Still for that read-out and setting: then `C[C@@]1(/C=C/S(=O)(=O)NC(=O)Nc2c3c(cc4c2CCC4)CCC3)CCCN1` [Example 105, (S,E)-N-((1,2,3,5,6,7-hexahydro-s-indacen-4-yl)carbamoyl)-2-(2-methylpyrrolidin-2-yl)ethene-1-sulfonamide], with 61 nM.
Turning to `CC(C)(C)OC(=O)N1CCC[C@@]1(C)/C=C/S(=O)(=O)NC(=O)Nc1c2c(cc3c1CCC3)CCC2` [Example 111, tert-butyl(S,E)-2-(2-(N-((1,2,3,5,6,7-hexahydro-s-indacen-4-yl)carbamoyl)sulfamoyl)vinyl)-2-methylpyrrolidine-1-carboxylate], the IC50 in the assay on IL-1β [2] (setting [3]) was 4.3 nM.
The same measure, in the same setting: then `CC(=O)N1CCC1/C=C/S(=O)(=O)NC(=O)Nc1c2c(cc3c1CCC3)CCC2` (centres unmarked) [Example 125, (E)-2-(1-acetylazetidin-2-yl)-N-((1,2,3,5,6,7-hexahydro-s-indacen-4-yl)carbamoyl)ethene-1-sulfonamide], with 16.4 nM.
As to `C=CCN1CCC[C@H]1/C=C/S(=O)(=O)NC(=O)Nc1c2c(cc3c1CCC3)CCC2` [Example 127, (S,E)-2-(1-allylpyrrolidin-2-yl)-N-((1,2,3,5,6,7-hexahydro-s-indacen-4-yl)carbamoyl)ethene-1-sulfonamide], the half-inhibitory concentration (IC50) in the assay with IL-1β [2] (setting [3]) was found to be 5.6 nM.
Consider `C[C@@]1(/C=C/S(=O)(=O)NC(=O)Nc2c3c(cc4c2CCC4)CCC3)CCCN1S(=O)(=O)C1CC1` [Example 129, (S,E)-2-(1-(cyclopropylsulfonyl)-2-methylpyrrolidin-2-yl)-N-((1,2,3,5,6,7-hexahydro-s-indacen-4-yl)carbamoyl)ethene-1-sulfonamide], for which the IC50 with IL-1β [2] (setting [3]) was 5.9 nM.
`CC(C)(C)OC(=O)N1CC2CC(N3CCC[C@@H]3/C=C/S(=O)(=O)NC(=O)Nc3c4c(cc5c3CCC5)CCC4)CC2C1` (stereo partly drawn) [Example 131, tert-butyl 5-((R)-2-((E)-2-(N-((1,2,3,5,6,7-hexahydro-s-indacen-4-yl)carbamoyl)sulfamoyl)vinyl)pyrrolidin-1-yl)hexahydrocyclopenta[c]pyrrole-2 (1H)-carboxylate]: the IC50 in the assay with IL-1β [2] (setting [3]) worked out at 16 nM.
In the case of `O=C(Nc1c2c(cc3c1CCC3)CCC2)NS(=O)(=O)/C=C/[C@H]1CCCN1C1CCSCC1` [Example 139, Sodium(R,E)-((1,2,3,5,6,7-hexahydro-s-indacen-4-yl)carbamoyl)((2-(1-(tetrahydro-2H-thiopyran-4-yl)pyrrolidin-2-yl)vinyl)sulfonyl)amide], in the assay with IL-1β [2] (setting [4]), the IC50 is 21 nM.
Regarding `CN1CCC[C@@]1(C)/C=C/S(=O)(=O)NC(=O)Nc1c2c(cc3c1CCC3)CCC2` [Example 144, sodium(S,E)-((2-(1,2-dimethylpyrrolidin-2-yl)vinyl)sulfonyl)((1,2,3,5,6,7-hexahydro-s-indacen-4-yl)carbamoyl)amide], in the assay with IL-1β [2] (setting [4]), the concentration for half-maximal inhibition (IC50) is 8.6 nM.
Still for that read-out and setting: the result for `CC(C)(C)OC(=O)N1CCC1(C)/C=C/S(=O)(=O)NC(=O)Nc1c2c(cc3c1CCC3)CCC2` (centres unmarked) [Example 147, tert-butyl(E)-2-(2-(N-((1,2,3,5,6,7-hexahydro-s-indacen-4-yl)carbamoyl)sulfamoyl)vinyl)-2-methylazetidine-1-carboxylate] reads 11 nM; that for `CC[C@@]1(/C=C/S(=O)(=O)NC(=O)Nc2c3c(cc4c2CCC4)CCC3)CCCN1C(=O)OC(C)(C)C` [Example 149, tert-butyl(S,E)-2-ethyl-2-(2-(N-((1,2,3,5,6,7-hexahydro-s-indacen-4-yl)carbamoyl)sulfamoyl)vinyl)pyrrolidine-1-carboxylate], 11 nM.
With `CN1CCC[C@@]1(C)/C=C/S(=O)(=O)NC(=O)Nc1cc2c(c3c1CCC3)CCC2` [Example 153, (S,E)-2-(1,2-dimethylpyrrolidin-2-yl)-N-((1,2,3,6,7,8-hexahydro-as-indacen-4-yl)carbamoyl)ethene-1-sulfonamide], the IC50 in the assay with IL-1β [2] (setting [4]) was found to be 32 nM.
